# Measurements: US20110207745A1 (priority 2009, published 2011)
# Where “and” joins values, the source holds several entries; their conditions need not be identical. Equal values may be shown once. Where a name gives a salt, the structure may show the parent alone. Read-outs that look alike come from different tables or passages of the source.
# Legend:
# [1] = Equilibrium solubility at 25° C.; type: physicochemical; conditions: thermodynamic from solid
# Excerpt: (§1) Solubility and Dissolution Rate Data. […]
# [2] = for Water content: 3 days, KF
# Method: (§2) Stress Experiments. Solids are stressed under different temperature or relative humidity (RH) environments for a measured time period. Specific RH values are achieved by placing the sample inside sealed chambers containing saturated salt solutions, as known in the art. The salt solutions are selected and prepared following an ASTM standard procedure. Samples are analyzed by XRPD immediately after removal from the stress environment.
# Modulated differential scanning calorimetry data are obtained on a TA Instruments differential scanning calorimeter 2920 equipped with a refrigerated cooling system (RCS). The sample is placed into an aluminum DSC pan, and the weight is accurately recorded. The pan is covered with a lid with is either crimped or uncrimped. MDSC data are obtained using a modulation amplitude of +/−0.8° C. and a 60 second period with an underlying heating rate of about 2° C./min. The temperature and the heat capacity are calibrated using indium metal and sapphire as the calibration standards, respectively. The reported glass transition temperature is obtained from the inflection of the step change in the reversible heat flow versus temperature curve.
# Physical Stability. Physical stability measurements were performed on the amorphous form of the mono-HCl salt of Compound A1. The amorphous HCl salt prepared by spray drying was set down under two conditions (40° C./75% RH and 25° C./60% RH) for physical stability studies.
# To investigate the impact of water on the amorphous mono-HCl salt, the material was stored at various RH conditions controlled by saturated salt solutions. Each material was checked by PLM (morphology), KF (water content), and mDSC (Tg value) after 3 days.
# [3] = Solubility in water and aqueous acid media; type: physicochemical; conditions: thermodynamic from solid
# Method: A weighed sample is treated with aliquots of the test solvent at room temperature or elevated temperature. Complete dissolution of the test material is determined by visual inspection. Solubility is estimated based on the total solvent used to provide complete dissolution. The actual solubility may be greater than the value calculated because of the use of solvent aliquots that were too large or due to a slow rate of dissolution. […] If complete dissolution is achieved as a result of only one aliquot addition, the solubility is expressed as “greater than”. Solubility of a salt may be expressed as the mass of salt dissolved per unit volume of solution, (denoted as, for example, “mg/mL”), or as the free base equivalent (denoted as, for example, “mgA/mL”).
# (§3) Solubility and Dissolution Rate Data.
# [4] = Solubility in simulated biological media; type: physicochemical; conditions: mean ± SD, n = 2; for solubility at 3 h / solubility at 24 h: thermodynamic from solid
# Excerpt: as §3, §1
# [5] = for % Purity after 60° C./80% RH, 2 wks / % Purity after 80° C., 2 wks: 2 weeks; for % Purity after 60° C./80% RH, 4 wks / % Purity after 80° C., 4 wks: 4 weeks; for Initial Purity: before storage
# Method: as §2
# Analyses are carried out on an Agilent® model 1100 high performance liquid chromatograph using gradient elution on a reversed phase column utilizing ultraviolet (UV) detection. Approximately 25 mg of the sample is weighed accurately and dissolved in methanol/water/trifluoroacetic acid (35:65:0.05) to a volume of 50 mL. The sample solution is analysed using the conditions specified below:
# The content of the drug and related substances are quantified by area (%).
# Chemical Stability. The chemical stability of Form I of the mono-HCl salt of Compound A1 was assessed by stressing the material at various temperature/relative humidity/light conditions, then analyzing by HPLC.
# Chemical Stability Data. The chemical stability of a sample of Form I of the sesquifumarate salt of Compound A1 was assessed by stressing the material at various temperature/relative humidity/light conditions, then analyzing by HPLC.
# [6] = Intrinsic dissolution rate in simulated biological media; type: physicochemical
# Method: Intrinsic dissolution rate is determined at 37° C. using a Distek Dissolution System model 5100A with a sample size of approximately 200 mg (0.5 cm^2 disc) and 500 mL dissolution medium. The paddle speed is set to 500 rpm and the paddle height to approximately 2.54 cm above the disc surface. The concentration of sample in solution is determined by HPLC.
# [7] = HPLC area %, listed as Amorphous Mono-HCl Salt of Compound A1
# [8] = 80° C., HPLC area %, listed as Amorphous Mono-HCl Salt of Compound A1
# [9] = Ultraviolet light, 25° C./60% RH, 2x ICH (2 days), stored open
# [10] = Ultraviolet light, 25° C./60% RH, 3x ICH (3 days), stored open
# [11] = Ultraviolet light, 25° C./60% RH, ICH (1 day), stored open
# [12] = White light, 25° C./60%, ICH (7 days), stored open
smiles,measurement,setting,value
"CCN(CC)C(=O)c1ccc([C@H](c2cccc(N)c2)N2CCN(Cc3ccc(F)cc3)CC2)cc1 [4-{(R)-(3-aminophenyl)[4-(4-fluorobenzyl)piperazin-1-yl]methyl}-N,N-diethylbenzamide]",solubility thermodynamic,"[1]; 0.1 M citrate buffer, aqueous buffer, pH 4.5, Citrate 0.1M",15.6 mg/mL
same,solubility thermodynamic,"[1]; 0.1 M phosphate buffer, aqueous buffer, pH 7.8, Phosphate 0.1M",0.16 mg/mL
same,solubility thermodynamic,"[1]; aqueous buffer, 0.1N NaOH",0.092 mg/mL
same,solubility thermodynamic,"[1]; simulated gastric fluid, 0.1N HCl",21.6 mg/mL
same,solubility thermodynamic,[1]; Pure water,8.7 mg/mL
same,physical stability,[2],physically stable
same,physical stability (appearance),[2],deliquesced and became brown in color
same,Water content,[2]; 23.1% RH (saturated KOAc),3.2%
same,Water content,[2]; 43.3% RH (saturated K2CO3),5.0%
same,Water content,[2]; 54.4% RH (saturated Mg(NO3)2),6.2%
same,Water content,[2]; 75.5% RH (saturated NaCl),8.2%
same,Water content,"[2]; 85.1% RH (saturated KCl), listed as Amorphous Mono-HCl Salt of Compound A1",9.5%
same,Water content,"[2]; 85.1% RH (saturated KCl), listed as amorphous mono-HCl salt",9.5%
same,Water content,[2]; 97.3% RH (saturated K2SO4),14.7%
same,water content (Karl-Fisher) of the resulting material,[2]; after 17 days at 25° C./60% RH (open),6.1%
same,water content of the initial material,"[2]; initial material, before storage",about 2.8%
same,solubility,"[3]; 0.1M phosphate acid, pH 3.3, aqueous buffer, 0.1M phosphate acid, pH=3.3, read-out: solubility in 0.1M phosphate acid",> 40 mg/mL
same,solubility,"[3]; 0.1M phosphate acid, pH 3.5, aqueous buffer, 0.1M phosphate acid, pH=3.5, read-out: solubility in 0.1M phosphate acid",12 mg/mL
same,solubility,"[3]; 0.1 M phosphoric acid, pH 3.3, aqueous buffer, ambient temperature, pH of about 3.3 (0.1 M phosphoric acid), read-out: solubility in water (0.1 M phosphoric acid)",> 40 mg/mL
same,solubility,"[3]; 0.1 M phosphoric acid, pH 3.5, aqueous buffer, ambient temperature, pH of about 3.5 (0.1 M phosphoric acid), read-out: solubility in water (0.1 M phosphoric acid)",~12 mg/mL
same,solubility,"[3]; 0.1N HCl, pH 2, simulated gastric fluid, 0.1N HCl, pH about 2, read-out: solubility in 0.1N HCl",24.9 mg/mL
same,solubility,"[3]; water, pH 3.8, water, ambient temperature, water with a pH of about 3.8, read-out: solubility in water",~24 mg/mL
same,solubility,"[3]; water, pH 3.8, water, water, pH=3.8, read-out: solubility in water",24 mg/mL
same,solubility,"[3]; water, pH 4.2, water, ambient temperature, water with a pH of about 4.2, read-out: solubility in water",> 41 mg/mL
same,solubility,"[3]; water, pH 4.2, water, water, pH=4.2, read-out: solubility in water",> 41 mg/mL
same,solubility at 3 h,"[4]; 0.1M phosphate buffer, pH 7.5, aqueous buffer, initial pH 7.5, 3 hr",0.29 mg/mL
same,solubility at 24 h,"[4]; 0.1M phosphate buffer, pH 7.5, aqueous buffer, initial pH 7.5, 24 hr",0.1 mg/mL
same,solubility at 3 h,"[4]; FeSSIF (fed-state simulated intestinal fluid), pH 5.03, fessif, initial pH 5.03, 3 hr",3.4 mg/mL
same,solubility at 24 h,"[4]; FeSSIF (fed-state simulated intestinal fluid), pH 5.03, fessif, initial pH 5.03, 24 hr",3.06 mg/mL
same,solubility at 3 h,"[4]; SGF (simulated gastric fluid), pH 1.3, simulated gastric fluid, initial pH 1.3, 3 hr",23 mg/mL
same,solubility at 24 h,"[4]; SGF (simulated gastric fluid), pH 1.3, simulated gastric fluid, initial pH 1.3, 24 hr",22 mg/mL
same,solubility at 3 h,"[4]; simulated gastric fluid (SGF), pH 1.3, simulated gastric fluid, SGF (simulated gastric fluid), initial pH 1.3, 3 hr",23.1 ± 0.12 mg/mL
same,solubility at 24 h,"[4]; simulated gastric fluid (SGF), pH 1.3, simulated gastric fluid, SGF (simulated gastric fluid), initial pH 1.3, 24 hr",21.9 ± 0.23 mg/mL
same,"% Purity after 60° C./80% RH, 2 wks",[5]; [7],94.4%
same,"% Purity after 60° C./80% RH, 4 wks",[5]; [7],94.5%
same,"% Purity after 80° C., 2 wks",[5]; [8],98.7%
same,"% Purity after 80° C., 4 wks",[5]; [8],98.6%
same,Purity after Photostability 3X ICH conditions,"[5]; Photostability 3X ICH conditions, HPLC area %, listed as Amorphous Mono-HCl Salt of Compound A1",82.3%
same,Initial Purity,[5]; [7],98.8%
"CCN(CC)C(=O)c1ccc([C@H](c2cccc(N)c2)N2CCN(Cc3ccc(F)cc3)CC2)cc1 [Form I of the mono-HCl salt of Compound A1] [4-{(R)-(3-aminophenyl)[4-(4-fluorobenzyl)piperazin-1-yl]methyl}-N,N-diethylbenzamide]",IDR (intrinsic dissolution rate),"[6]; FaSSIF, initial pH 6.51, mean ± SD, n = 2",48.4 μg/min/cm^2
same,IDR (intrinsic dissolution rate),"[6]; FaSSIF, initial pH 6.51, mean ± SD, n = 2, listed as Form I of the Compound A1 Mono-HCl Salt",48.4 ± 7.12 μg/min/cm^2
same,IDR (intrinsic dissolution rate),"[6]; FeSSIF, initial pH 5.03, mean ± SD, n = 2",91.6 μg/min/cm^2
same,IDR (intrinsic dissolution rate),"[6]; FeSSIF, initial pH 5.03, mean ± SD, n = 2, listed as Form I of the Compound A1 Mono-HCl Salt",91.6 ± 5.48 μg/min/cm^2
same,IDR (intrinsic dissolution rate),"[6]; SGF, initial pH 1.3",too soluble to permit determination of its IDR
same,"Solubility, 3 hr","[4]; FaSSIF (fasted-state simulated intestinal fluid), initial pH 6.51, 3 hr",1.72 mg/mL
same,"Solubility, 24 hr","[4]; FaSSIF (fasted-state simulated intestinal fluid), initial pH 6.51, 24 hr",0.83 mg/mL
same,% Purity (after challenge),"[5]; 25° C./60% RH, 7 days",99.8%
same,% Purity (reference material),"[5]; 25° C./60% RH, 7 days",103.2%
same,"% Purity after 40° C./75% RH, 2 wks","[5]; 40° C./75% RH, 2 wks, HPLC area %",97.3% and 98.8%
same,"% Purity after 40° C./75% RH, 4 wks","[5]; 40° C./75% RH, 4 wks, HPLC area %",97.2% and 98.8%
same,% Purity (after challenge),"[5]; 40° C./75% RH, 7 days",99.8%
same,% Purity (reference material),"[5]; 40° C./75% RH, 7 days",102.1%
same,"% Purity after 60° C./80% RH, 2 wks",[5]; HPLC area %,90.4% and 97.6%
same,"% Purity after 60° C./80% RH, 4 wks",[5]; HPLC area %,89.0% and 95.3%
same,"% Purity after 80° C., 2 wks","[5]; 80° C., HPLC area %",94.1% and 96.9%
same,"% Purity after 80° C., 4 wks","[5]; 80° C., HPLC area %",92.3% and 95.4%
same,% Purity (after challenge),"[5]; 80° C., 7 days",99.8%
same,% Purity (reference material),"[5]; 80° C., 7 days",101.4%
same,% Purity (after challenge),"[5]; Reference, 0 days",99.8%
same,% Purity (reference material),"[5]; Reference, 0 days",100%
same,% Purity (after challenge),[5]; [9],99.2%
same,% Purity (reference material),[5]; [9],95.0%
same,% Purity (after challenge),[5]; [10],99.0%
same,% Purity (reference material),[5]; [10],94.7%
same,% Purity (after challenge),[5]; [11],99.6%
same,% Purity (reference material),[5]; [11],98.0%
same,% Purity (after challenge),[5]; [12],98.5%
same,% Purity (reference material),[5]; [12],95.6%
same,Initial Purity,[5]; HPLC area %,97.0% and 98.7%
